Type in all cases: functional, organism-based
The subject of one assay is Influenza A virus. Kind of assay: Inhibition of hemagglutinination in human influenza virus A/PR/8/34 (H1N1) infected in bovine erythrocytes. The following applies: A/Puerto Rico/8/1934(H1N1).
Assay [1] concerns Influenza A virus H3N2. Kind of assay: Inhibition of hemagglutinination in human influenza virus A/Aich/2/68 (H3N2) infected in bovine erythrocytes. Particulars: Influenza A virus (A/Aichi/2/1968(H3N2)).
Assay [2] has as its system Influenza A virus H3N2. Kind of assay: Inhibition of hemagglutinination in human influenza virus A/Memphis/1/71 (H3N2) infected in bovine erythrocytes. The following applies: Influenza A virus (A/Memphis/1/1971(H3N2)).

Molecules are shown by their SMILES. Calls of active or inactive are those of the source. The calls are words filed in the database; no cut-off is given here.

As for `CC(=O)N[C@H]1[C@H]([C@H](O)[C@H](O)CO)O[C@@](O[C@H]2[C@@H](O)[C@@H](CO)O[C@H](O[C@H]3[C@H](O)[C@@H](O)[C@H](OCCCCCSCCC[Si](CCCSCCCCCO[C@@H]4O[C@H](CO)[C@@H](O[C@H]5O[C@H](CO)[C@H](O)[C@H](O[C@]6(C(=O)O)C[C@H](O)[C@@H](NC(C)=O)[C@H]([C@H](O)[C@H](O)CO)O6)[C@H]5O)[C@H](O)[C@H]4O)(CCCSCCCCCO[C@@H]4O[C@H](CO)[C@@H](O[C@H]5O[C@H](CO)[C@H](O)[C@H](O[C@]6(C(=O)O)C[C@H](O)[C@@H](NC(C)=O)[C@H]([C@H](O)[C@H](O)CO)O6)[C@H]5O)[C@H](O)[C@H]4O)CCC[Si](C)(C)CCC[Si](CCCSCCCCCO[C@@H]4O[C@H](CO)[C@@H](O[C@H]5O[C@H](CO)[C@H](O)[C@H](O[C@]6(C(=O)O)C[C@H](O)[C@@H](NC(C)=O)[C@H]([C@H](O)[C@H](O)CO)O6)[C@H]5O)[C@H](O)[C@H]4O)(CCCSCCCCCO[C@@H]4O[C@H](CO)[C@@H](O[C@H]5O[C@H](CO)[C@H](O)[C@H](O[C@]6(C(=O)O)C[C@H](O)[C@@H](NC(C)=O)[C@H]([C@H](O)[C@H](O)CO)O6)[C@H]5O)[C@H](O)[C@H]4O)CCCSCCCCCO[C@@H]4O[C@H](CO)[C@@H](O[C@H]5O[C@H](CO)[C@H](O)[C@H](O[C@]6(C(=O)O)C[C@H](O)[C@@H](NC(C)=O)[C@H]([C@H](O)[C@H](O)CO)O6)[C@H]5O)[C@H](O)[C@H]4O)O[C@@H]3CO)[C@@H]2O)(C(=O)O)C[C@@H]1O`, the outcome in the assay with Influenza A virus and in the assay on Influenza A virus H3N2 [1] was Active.

Turning to `C=CCCCO[C@@H]1O[C@H](CO)[C@@H](O[C@H]2O[C@H](CO)[C@H](O)[C@H](O[C@]3(C(=O)O)C[C@H](O)[C@@H](NC(C)=O)[C@H]([C@H](O)[C@H](O)CO)O3)[C@H]2O)[C@H](O)[C@H]1O`, the result in the assay on Influenza A virus and in the assay with Influenza A virus H3N2 [1] was Active.

For `CC(=O)N[C@H]1[C@H]([C@H](O)[C@H](O)CO)O[C@@](O[C@H]2[C@@H](O)[C@@H](CO)O[C@H](O[C@H]3[C@H](O)[C@@H](O)[C@H](OCCCCCSCCCCCC(=O)NCCC[Si](CCCNC(=O)CCCCCSCCCCCO[C@@H]4O[C@H](CO)[C@@H](O[C@H]5O[C@H](CO)[C@H](O)[C@H](O[C@]6(C(=O)O)C[C@H](O)[C@@H](NC(C)=O)[C@H]([C@H](O)[C@H](O)CO)O6)[C@H]5O)[C@H](O)[C@H]4O)(CCCNC(=O)CCCCCSCCCCCO[C@@H]4O[C@H](CO)[C@@H](O[C@H]5O[C@H](CO)[C@H](O)[C@H](O[C@]6(C(=O)O)C[C@H](O)[C@@H](NC(C)=O)[C@H]([C@H](O)[C@H](O)CO)O6)[C@H]5O)[C@H](O)[C@H]4O)CCCNC(=O)CCCCCSCCCCCO[C@@H]4O[C@H](CO)[C@@H](O[C@H]5O[C@H](CO)[C@H](O)[C@H](O[C@]6(C(=O)O)C[C@H](O)[C@@H](NC(C)=O)[C@H]([C@H](O)[C@H](O)CO)O6)[C@H]5O)[C@H](O)[C@H]4O)O[C@@H]3CO)[C@@H]2O)(C(=O)O)C[C@@H]1O`, the result in the assay with Influenza A virus and in the assay with Influenza A virus H3N2 [1] was Active.

In the case of `CC(=O)N[C@H]1[C@H]([C@H](O)[C@H](O)CO)O[C@@](O[C@H]2[C@@H](O)[C@@H](CO)O[C@H](O[C@H]3[C@H](O)[C@@H](O)[C@H](OCCCCCSCCC[Si](CCCSCCCCCO[C@@H]4O[C@H](CO)[C@@H](O[C@H]5O[C@H](CO)[C@H](O)[C@H](O[C@]6(C(=O)O)C[C@H](O)[C@@H](NC(C)=O)[C@H]([C@H](O)[C@H](O)CO)O6)[C@H]5O)[C@H](O)[C@H]4O)(CCCSCCCCCO[C@@H]4O[C@H](CO)[C@@H](O[C@H]5O[C@H](CO)[C@H](O)[C@H](O[C@]6(C(=O)O)C[C@H](O)[C@@H](NC(C)=O)[C@H]([C@H](O)[C@H](O)CO)O6)[C@H]5O)[C@H](O)[C@H]4O)CCCSCCCCCO[C@@H]4O[C@H](CO)[C@@H](O[C@H]5O[C@H](CO)[C@H](O)[C@H](O[C@]6(C(=O)O)C[C@H](O)[C@@H](NC(C)=O)[C@H]([C@H](O)[C@H](O)CO)O6)[C@H]5O)[C@H](O)[C@H]4O)O[C@@H]3CO)[C@@H]2O)(C(=O)O)C[C@@H]1O`, the outcome in the assay on Influenza A virus and with Influenza A virus H3N2 [1] was Active.

As for `CC(=O)N[C@H]1[C@H]([C@H](O)[C@H](O)CO)O[C@@](O[C@H]2[C@@H](O)[C@@H](CO)O[C@H](O[C@H]3[C@H](O)[C@@H](O)[C@H](OCCCCCSCCCCCC(=O)NCCC[Si](CCCNC(=O)CCCCCSCCCCCO[C@@H]4O[C@H](CO)[C@@H](O[C@H]5O[C@H](CO)[C@H](O)[C@H](O[C@]6(C(=O)O)C[C@H](O)[C@@H](NC(C)=O)[C@H]([C@H](O)[C@H](O)CO)O6)[C@H]5O)[C@H](O)[C@H]4O)(CCCNC(=O)CCCCCSCCCCCO[C@@H]4O[C@H](CO)[C@@H](O[C@H]5O[C@H](CO)[C@H](O)[C@H](O[C@]6(C(=O)O)C[C@H](O)[C@@H](NC(C)=O)[C@H]([C@H](O)[C@H](O)CO)O6)[C@H]5O)[C@H](O)[C@H]4O)c4ccccc4)O[C@@H]3CO)[C@@H]2O)(C(=O)O)C[C@@H]1O`, the outcome with Influenza A virus and with Influenza A virus H3N2 [1] was Active.

For the molecule `CC(=O)N[C@H]1[C@H]([C@H](O)[C@H](O)CO)O[C@@](O[C@H]2[C@@H](O)[C@@H](CO)O[C@H](O[C@H]3[C@H](O)[C@@H](O)[C@H](OCCCCCSCCC[Si](CCCSCCCCCO[C@@H]4O[C@H](CO)[C@@H](O[C@H]5O[C@H](CO)[C@H](O)[C@H](O[C@]6(C(=O)O)C[C@H](O)[C@@H](NC(C)=O)[C@H]([C@H](O)[C@H](O)CO)O6)[C@H]5O)[C@H](O)[C@H]4O)(CCCSCCCCCO[C@@H]4O[C@H](CO)[C@@H](O[C@H]5O[C@H](CO)[C@H](O)[C@H](O[C@]6(C(=O)O)C[C@H](O)[C@@H](NC(C)=O)[C@H]([C@H](O)[C@H](O)CO)O6)[C@H]5O)[C@H](O)[C@H]4O)c4ccccc4)O[C@@H]3CO)[C@@H]2O)(C(=O)O)C[C@@H]1O`, the result in the assay on Influenza A virus and in the assay on Influenza A virus H3N2 [1] was Active.

For `CC(=O)N[C@H]1[C@H]([C@H](O)[C@H](O)CO)O[C@@](O[C@H]2[C@@H](O)[C@@H](CO)O[C@H](O[C@H]3[C@H](O)[C@@H](O)[C@H](OCCCCCSCCCCCC(=O)NCCC[Si](CCCNC(=O)CCCCCSCCCCCO[C@@H]4O[C@H](CO)[C@@H](O[C@H]5O[C@H](CO)[C@H](O)[C@H](O[C@]6(C(=O)O)C[C@H](O)[C@@H](NC(C)=O)[C@H]([C@H](O)[C@H](O)CO)O6)[C@H]5O)[C@H](O)[C@H]4O)(CCCNC(=O)CCCCCSCCCCCO[C@@H]4O[C@H](CO)[C@@H](O[C@H]5O[C@H](CO)[C@H](O)[C@H](O[C@]6(C(=O)O)C[C@H](O)[C@@H](NC(C)=O)[C@H]([C@H](O)[C@H](O)CO)O6)[C@H]5O)[C@H](O)[C@H]4O)CCC[Si](C)(C)CCC[Si](CCCNC(=O)CCCCCSCCCCCO[C@@H]4O[C@H](CO)[C@@H](O[C@H]5O[C@H](CO)[C@H](O)[C@H](O[C@]6(C(=O)O)C[C@H](O)[C@@H](NC(C)=O)[C@H]([C@H](O)[C@H](O)CO)O6)[C@H]5O)[C@H](O)[C@H]4O)(CCCNC(=O)CCCCCSCCCCCO[C@@H]4O[C@H](CO)[C@@H](O[C@H]5O[C@H](CO)[C@H](O)[C@H](O[C@]6(C(=O)O)C[C@H](O)[C@@H](NC(C)=O)[C@H]([C@H](O)[C@H](O)CO)O6)[C@H]5O)[C@H](O)[C@H]4O)CCCNC(=O)CCCCCSCCCCCO[C@@H]4O[C@H](CO)[C@@H](O[C@H]5O[C@H](CO)[C@H](O)[C@H](O[C@]6(C(=O)O)C[C@H](O)[C@@H](NC(C)=O)[C@H]([C@H](O)[C@H](O)CO)O6)[C@H]5O)[C@H](O)[C@H]4O)O[C@@H]3CO)[C@@H]2O)(C(=O)O)C[C@@H]1O`, the result with Influenza A virus H3N2 [2], in the assay on Influenza A virus and in the assay with Influenza A virus H3N2 [1] was Active.

Source of the values: ChEMBL document CHEMBL1155901, “Sialyl alpha(2-->3) lactose clusters using carbosilane dendrimer core scaffolds as influenza hemagglutinin blockers” (Bioorg Med Chem Lett, 2008).
